Assay results as given in US4393228A, “Epoxysuccinic acid derivatives” (Taisho Pharmaceutical Co., Ltd., priority 1977, dated 1983).

Target: T1, papain (Carica papaya, UniProt P00784)
T1 construct: purchased Sigma Chem. Co
T1 sequence (P00784 134-345): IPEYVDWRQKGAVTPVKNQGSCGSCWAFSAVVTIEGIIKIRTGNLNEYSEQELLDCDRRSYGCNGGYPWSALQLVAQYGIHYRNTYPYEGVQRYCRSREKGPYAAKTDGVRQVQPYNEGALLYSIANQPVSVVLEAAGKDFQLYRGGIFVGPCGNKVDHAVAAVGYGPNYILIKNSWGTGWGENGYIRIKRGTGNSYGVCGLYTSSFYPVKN
Assay: Papain inhibitory activity (milk casein digestion)
Format: biochemical
Conditions: papain 80 μg/ml 0.5 ml, cysteine, pH 6.8, 1% milk casein, 40° C., 10 minutes
Summary of the method: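 Papain (80 μg/ml stock) preincubated 15 min at 40 °C with inhibitor, cysteine/EDTA activator and phosphate buffer pH 6.8. Then 1% milk casein digested 10 min at 40 °C, stopped with trichloroacetic acid and filtered; filtrate absorbance at 280 nm gives percent inhibition versus no-inhibitor control.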

SMILES	ID50 (amount of inhibitor for 50% inhibition)
O=C(O)C1OC1C(=O)OC1CCCC(Br)C1 (stereo not drawn) [EP-10, 3'-cis-bromocyclohexyl potassium epoxysuccinate]	0.06 γ
CC1CCCC(C)C1OC(=O)C1OC1C(=O)OC1C(C)CCCC1C (stereo not drawn) [EP-13, di-2',6'-trans-dimethylcyclohexyl epoxysuccinate]	2.50 γ
C#CCOC(=O)C1OC1C(=O)N[C@@H](CCCCNC(=O)OCc1ccccc1)C(=O)OCc1ccccc1 (stereo partly drawn) [EP-165, N^α -(3-propargyloxycarbonyloxirane-2-carbonyl)-N^ε -carbobenzoxy-L-lysine benzyl ester]	22.50 γ
Cc1cc(C)c(COC(=O)[C@@H]2O[C@H]2C(=O)O)c(C)c1 (relative stereo) [EP-96, 2',4',6'-trimethylbenzyl potassium epoxysuccinate]	0.37 γ
CCOC(=O)C1OC1C(=O)N[C@@H](CCCNC(=O)c1ccccc1)C(=O)OCc1ccccc1 (stereo partly drawn) [EP-173, N^α -(3-ethoxycarbonyloxirane-2-carbonyl)-N^δ -benzoyl-L-ornithine benzyl ester]	5.80 γ
O=C(O)[C@@H]1O[C@H]1C(=O)OCC1CCCO1 (relative stereo) [EP-76, tetrahydro-2-furanmethyl potassium epoxysuccinate]	0.82 γ
O=C(O)[C@H]1O[C@@H]1C(=O)OCCCc1ccccc1 (relative stereo) [EP-132, 3'-phenylpropyl potassium epoxysuccinate]	0.17 γ
CC(C)OC(=O)[C@H]1O[C@@H]1C(=O)O (relative stereo) [EP-139, i-propyl potassium epoxysuccinate]	0.78 γ
O=C(N[C@@H](CSCc1ccccc1)C(=O)OCc1ccccc1)C1OC1C(=O)OCc1ccccc1 (stereo partly drawn) [EP-191, N-(3-benzyloxycarbonyloxirane-2-carbonyl)-S-benzyl-L-cysteine benzyl ester]	5.51 γ
O=C(O)[C@@H]1O[C@H]1C(=O)OCc1cccc2ccccc12 (relative stereo) [EP-82, 1'-naphthylmethyl potassium epoxysuccinate]	0.34 γ
O=C(OCc1ccc(Cl)cc1)[C@@H]1O[C@H]1C(=O)OCc1ccc(Cl)cc1 (relative stereo) [EP-115, di-p-chlorobenzyl epoxysuccinate]	1.20 γ
O=C(OCc1cccc2c(Br)cccc12)[C@@H]1O[C@H]1C(=O)OCc1cccc2c(Br)cccc12 (relative stereo) [EP-85, di-5'-bromo-1'-naphthylmethyl epoxysuccinate]	1.56 γ
O=C(O)C1OC1C(=O)OC1CCC(Cl)C1 (stereo not drawn) [EP-30, 3'-cis-chlorocyclopentyl potassium epoxysuccinate]	0.07 γ
CCCOC(=O)[C@H]1O[C@@H]1C(=O)NCC(=O)OCc1ccccc1 (relative stereo) [EP-153, N-(3-n-propyloxycarbonyloxirane-2-carbonyl)-glycine benzyl ester]	17.90 γ
CC1(C)C2CCC1(C)C(OC(=O)C1OC1C(=O)O)C2 (stereo not shown) [EP-54, bornyl potassium epoxysuccinate]	0.09 γ
CC(C)[C@H](NC(=O)C1OC1C(=O)OC1CCCC1)C(=O)OCc1ccccc1 (stereo partly drawn) [EP-205, N-(3-cyclopentyloxycarbonyloxirane-2-carbonyl)-L-valine benzyl ester]	0.82 γ
CCCCOC(=O)[C@H](CC(C)C)NC(=O)C1OC1C(=O)OCc1ccco1 (stereo partly drawn) [EP-217, N-[3-furfuryloxycarbonyloxirane-2-carbonyl]-L-leucine n-butyl ester]	0.25 γ
O=C(O)C1OC1C(=O)OC1CC(Cl)CC(Cl)C1 (stereo not drawn) [EP-24, 3',5'-trans-dichlorocyclohexyl potassium epoxysuccinate]	0.09 γ
O=C(OC1CCCCCCC1)[C@@H]1O[C@H]1C(=O)OC1CCCCCCC1 (relative stereo) [EP-35, dicyclooctyl epoxysuccinate]	0.98 γ
CCOC(=O)C1OC1C(=O)N[C@@H](C)C(=O)OC(C)(C)C (stereo partly drawn) [EP-192, N-(3-ethoxycarbonyloxirane-2-carbonyl)-L-alanine-t-butyl ester]	40.50 γ
O=C(O)C1OC1C(=O)OC1CC2C=CC1C2 (stereo not shown) [EP-58, norbor-5-en-2-yl potassium epoxysuccinate]	0.07 γ
CCOC(=O)[C@H](CC(C)C)NC(=O)C1OC1C(=O)OC (stereo partly drawn) [EP-166, N-(3-methoxycarbonyloxirane-2-carbonyl)-L-leucine ethyl ester]	0.67 γ

SMILES	ID50 (amount of inhibitor for 50% inhibition)
CC(OC(=O)C1OC1C(=O)N[C@@H](CCCCN)C(=O)OCc1ccccc1)C1CCCC1 (stereo partly drawn) [EP-206, N-[3-(1'-cyclopentylethoxy)-carbonyloxirane-2-carbonyl]-L-lysine benzyl ester]	0.12 γ
O=C(O)C1OC1C(=O)N[C@@H](Cc1c[nH]c2ccccc12)C(=O)O (stereo partly drawn) [EP-177, N-(3-carboxyoxirane-2-carbonyl)-L-tryptophan]	1.50 γ
O=C(O)[C@@H]1O[C@H]1C(=O)OCc1ccc2c(c1)OCO2 (relative stereo) [EP-104, methylene-3',4'-dioxybenzyl potassium epoxysuccinate]	0.36 γ
C[C@H]1CCCC[C@H]1OC(=O)[C@@H]1O[C@H]1C(=O)O[C@@H]1CCCC[C@@H]1C (relative stereo) [EP-3, di-2'-cis-methylcyclohexyl epoxysuccinate]	2.12 γ
COC(=O)[C@H](CCCNC(=O)OCc1ccccc1)NC(=O)C1OC1C(=O)[O-].[K+] (stereo partly drawn) [EP-198, N^α -(3-carboxyoxirane-2-carbonyl)-N^δ -carbobenzoxy-L-ornithine methyl ester potassium salt]	0.15 γ
O=C(O[C@H]1CC[C@H](Cl)CC1)[C@@H]1O[C@H]1C(=O)O[C@H]1CC[C@H](Cl)CC1 (relative stereo) [EP-19, di-4'-trans-chlorocyclohexyl epoxysuccinate]	2.01 γ
O=C(O)[C@@H]1O[C@H]1C(=O)OCc1c(Cl)ccc2ccccc12 (relative stereo) [EP-84, 2'-chloro-1'-naphthylmethyl potassium epoxysuccinate]	0.29 γ
O=C(O)[C@@H]1O[C@H]1C(=O)OCCC12CC3CC(CC(C3)C1)C2 (relative stereo) [EP-50, 2-(1-adamantane)ethyl potassium epoxysuccinate]	0.09 γ
CCOC(=O)C1OC1C(=O)N[C@@H](Cc1c[nH]cn1)C(=O)OC (stereo partly drawn) [EP-185, N^α -(3-ethoxycarbonyloxirane-2-carbonyl)-L-histidine methyl ester]	14.05 γ
O=C(OCC12CC3CC(CC(C3)C1)C2)[C@@H]1O[C@H]1C(=O)OCC12CC3CC(CC(C3)C1)C2 (relative stereo) [EP-47, di-1-adamantanemethyl epoxysuccinate]	0.25 γ
CCCCOC(=O)[C@H](CCCNC(=O)OCc1ccccc1)NC(=O)C1OC1C(=O)[O-].[K+] (stereo partly drawn) [EP-199, N^α -(3-carboxyoxirane-2-carbonyl)-N^δ -carbobenzoxy-L-ornithine n-butyl ester potassium salt]	0.14 γ
O=C(OCc1c(Cl)ccc2ccccc12)[C@@H]1O[C@H]1C(=O)OCc1c(Cl)ccc2ccccc12 (relative stereo) [EP-83, di-2'-chloro-1'-naphthylmethyl epoxysuccinate]	1.55 γ
C=CCOC(=O)C1OC1C(=O)N[C@@H](Cc1ccc(O)cc1)C(=O)OCc1ccccc1 (stereo partly drawn) [EP-147, N-(3-allyloxycarbonyloxirane-2-carbonyl)-L-tyrosine benzyl ester]	3.40 γ
O=C(O)[C@@H]1O[C@H]1C(=O)OCc1ccco1 (relative stereo) [EP-78, 2-furanmethyl potassium epoxysuccinate]	0.54 γ
O=C(OCCC1CCCC1)[C@@H]1O[C@H]1C(=O)OCCC1CCCC1 (relative stereo) [EP-59, di-2-cyclopentaneethyl epoxysuccinate]	0.18 γ
N=C(N)NCCC[C@H](NC(=O)C1OC1C(=O)O)C(=O)O (stereo partly drawn) [EP-202, N-(3-carboxyoxirane-2-carbonyl)-L-arginine]	21.93 γ
CCCOC(=O)[C@H]1O[C@@H]1C(=O)O (relative stereo) [EP-138, n-propyl potassium epoxysuccinate]	0.82 γ
Cc1cccc(COC(=O)[C@@H]2O[C@H]2C(=O)OCc2cccc(C)c2Br)c1Br (relative stereo) [EP-97, di-2'-bromo-3'-methylbenzyl epoxysuccinate]	3.20 γ
CCOC(=O)[C@H](Cc1ccccc1)NC(=O)C1OC1C(=O)OCc1ccccc1 (stereo partly drawn) [EP-159, N-(3-benzyloxycarbonyloxirane-2-carbonyl)-L-phenylalanine ethyl ester]	0.27 γ
CCOC(=O)[C@H](Cc1ccccc1)NC(=O)C1OC1C(=O)OCc1ccccc1Cl (stereo partly drawn) [EP-160, N-(3-o-chlorobenzyloxycarbonyloxirane-2-carbonyl)-L-phenylalanine ethyl ester]	0.30 γ
O=C(O)[C@H]1O[C@@H]1C(=O)OCc1cc(Cl)ccc1Cl (relative stereo) [EP-128, 2',5'-dichlorobenzyl potassium epoxysuccinate]	0.11 γ
